Reference: patent EP0595557A1, “New substituted azetidinones as anti-inflammatory and antidegenerative agents” (MERCK & CO. INC., priority 1992, dated 1994)

target: T1, Human Polymorphonuclear Leukocyte Elastase (Homo sapiens, UniProt P08246); assay: Enzyme assay for inhibition of human polymorphonuclear leukocyte elastase via hydrolysis of Boc-AAPAN or Boc-AAPVN; format: biochemical; conditions: pH 7.5, second order rate constant for inactivation of the enzyme, expressed to the nearest thousand, read-out: Kobs/[I]
T1 construct: Crude extract of human polymorphonuclear leukocytes (PMN) containing elastase activity; from tissue; host or cells: human polymorphonuclear leukocytes (crude extract)
T1 sequence (P08246 30-267): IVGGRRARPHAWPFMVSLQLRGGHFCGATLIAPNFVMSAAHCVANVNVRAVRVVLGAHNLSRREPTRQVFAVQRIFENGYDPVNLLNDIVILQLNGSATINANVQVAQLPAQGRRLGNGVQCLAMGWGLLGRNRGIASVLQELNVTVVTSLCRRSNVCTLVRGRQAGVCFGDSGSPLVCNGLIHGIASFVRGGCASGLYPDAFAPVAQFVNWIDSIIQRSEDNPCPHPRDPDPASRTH
Method in brief: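 Crude human PMN extract as enzyme source, with 0.2 mM Boc-AAPAN in 0.05M TES buffer pH 7.5. Inhibitors in DMSO were added to substrate before the extract, and rate was followed as ΔOD/min at 410 mµ. Values are kobs/I, the second-order inactivation rate constant (per mole per second).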

| Structure (SMILES) | kinact/KI |
| --- | --- |
| CCC[C@@H](NC(=O)N1C(=O)C(CC)(CC)[C@@H]1Oc1ccc(C(=O)N2CC(C)NC(C)C2)cc1)c1ccc(C)cc1 (some centres unmarked) [Compound 146] | 1.52e+06 M⁻¹ s⁻¹ |
| CCC[C@@H](NC(=O)N1C(=O)C(CC)(CC)[C@@H]1Oc1ccc(C(=O)N(C)CC[N+](C)([O-])Cc2ccccc2)cc1)c1ccc(C)cc1 (some centres unmarked) [Compound 147] | 2.49e+06 M⁻¹ s⁻¹ |
| CCC[C@@H](NC(=O)N1C(=O)C(CC)(CC)[C@@H]1Oc1ccc(C(=O)N(C)CCN(C)Cc2ccncc2)cc1)c1ccc(C)cc1 [Compound 148] | 2.39e+06 M⁻¹ s⁻¹ |
| CCC[C@@H](NC(=O)N1C(=O)C(CC)(CC)[C@@H]1Oc1ccc(C(=O)N2CCC[C@H]2CN(C)Cc2ccccc2)cc1)c1ccc(C)cc1 [Compound 149] | 3.27e+06 M⁻¹ s⁻¹ |
| CCC[C@@H](NC(=O)N1C(=O)C(CC)(CC)[C@@H]1Oc1ccc(C(=O)N(C)CCN(C)Cc2ccccn2)cc1)c1ccc(C)cc1 [Compound 150] | 2.16e+06 M⁻¹ s⁻¹ |
| CCC[C@@H](NC(=O)N1C(=O)C(CC)(CC)[C@@H]1Oc1ccc(C(=O)N(C)CCN2CCNCC2)cc1)c1ccc(C)cc1 [Compound 151] | 1.19e+06 M⁻¹ s⁻¹ |
| CCC[C@@H](NC(=O)N1C(=O)C(CC)(CC)[C@@H]1Oc1ccc(C(=O)N2CCCNCC2)cc1)c1ccc(C)cc1 [Compound 152] | 1.95e+06 M⁻¹ s⁻¹ |
| CCC[C@@H](NC(=O)N1C(=O)C(CC)(CC)[C@@H]1Oc1ccc(C(=O)N(C)CCN(C)CCc2ccccc2)cc1)c1ccc(C)cc1 [Compound 153] | 2.8e+06 M⁻¹ s⁻¹ |
| CCC[C@@H](NC(=O)N1C(=O)C(CC)(CC)[C@@H]1Oc1ccc(C(=O)N2CCC[C@@H]2CN2CCCC2)cc1)c1ccc(C)cc1 [Compound 154] | 1.67e+06 M⁻¹ s⁻¹ |
| CCC[C@@H](NC(=O)N1C(=O)C(CC)(CC)[C@@H]1Oc1ccc(C(=O)N2CCCN(Cc3ccccc3)CC2)cc1)c1ccc(C)cc1 [Compound 155] | 1.98e+06 M⁻¹ s⁻¹ |
| CCC[C@@H](NC(=O)N1C(=O)C(CC)(CC)[C@@H]1Oc1ccc(C(=O)N(C)CC(O)C(O)C(O)C(O)CO)cc1)c1ccc(C)cc1 (some centres unmarked) [Compound 156] | 1.2e+06 M⁻¹ s⁻¹ |
| CCC[C@@H](NC(=O)N1C(=O)C(CC)(CC)[C@@H]1Oc1ccc(C(=O)N(C)CC(OC(C)=O)C(OC(C)=O)C(OC(C)=O)C(COC(C)=O)OC(C)=O)cc1)c1ccc(C)cc1 (some centres unmarked) [Compound 157] | 1.17e+06 M⁻¹ s⁻¹ |
| CCC[C@@H](NC(=O)N1C(=O)C(CC)(CC)[C@@H]1Oc1ccc(C(=O)N(C)CCN(C)Cc2cccc3ccccc23)cc1)c1ccc(C)cc1 [Compound 158] | 1.08e+06 M⁻¹ s⁻¹ |
| CCC[C@@H](NC(=O)N1C(=O)C(CC)(CC)[C@@H]1Oc1ccc(C(=O)N(C)CCN(Cc2ccccc2)Cc2ccccc2)cc1)c1ccc(C)cc1 [Compound 161] | 1.02e+06 M⁻¹ s⁻¹ |
| CCC[C@@H](NC(=O)N1C(=O)C(CC)(CC)[C@@H]1Oc1ccc(C(=O)NC2CCCN(CC)C2)cc1)c1ccc(C)cc1 (some centres unmarked) [Compound 162] | 949000 M⁻¹ s⁻¹ |
| CCC[C@@H](NC(=O)N1C(=O)C(CC)(CC)[C@@H]1Oc1ccc(C(=O)N(C)CCN(C)Cc2ccco2)cc1)c1ccc(C)cc1 [Compound 163] | 1.82e+06 M⁻¹ s⁻¹ |
| CCC[C@@H](NC(=O)N1C(=O)C(CC)(CC)[C@@H]1Oc1ccc(C(=O)N(C)CCCC(=O)O)cc1)c1ccc(C)cc1 [Compound 164] | 1.06e+06 M⁻¹ s⁻¹ |
| CCC[C@@H](NC(=O)N1C(=O)C(CC)(CC)[C@@H]1Oc1ccc(C(=O)N(C)CCCC(=O)NS(=O)(=O)c2ccccc2)cc1)c1ccc(C)cc1 [Compound 165] | 1.55e+06 M⁻¹ s⁻¹ |
| C=CCN(C)CCN(C)C(=O)c1ccc(O[C@@H]2N(C(=O)N[C@H](CCC)c3ccc(C)cc3)C(=O)C2(CC)CC)cc1 [Compound 166] | 1.36e+06 M⁻¹ s⁻¹ |
| CCC[C@@H](NC(=O)N1C(=O)C(CC)(CC)[C@@H]1Oc1ccc(C(=O)N(C)CCCN(C)Cc2ccccc2)cc1)c1ccc(C)cc1 [Compound 167] | 1.29e+06 M⁻¹ s⁻¹ |
| CCC[C@@H](NC(=O)N1C(=O)C(CC)(CC)[C@@H]1Oc1ccc(C(=O)N(C)CCCCCCN(C)Cc2ccccc2)cc1)c1ccc(C)cc1 [Compound 168] | 2.16e+06 M⁻¹ s⁻¹ |
| CCC[C@@H](NC(=O)N1C(=O)C(CC)(CC)[C@@H]1Oc1ccc(C(=O)N(C)CCO)cc1)c1ccc(C)cc1 [Compound 169] | 1.46e+06 M⁻¹ s⁻¹ |
| CCC[C@@H](NC(=O)N1C(=O)C(CC)(CC)[C@@H]1Oc1ccc(C(=O)N(C)CCOC(=O)N(C)C)cc1)c1ccc(C)cc1 [Compound 170] | 1.52e+06 M⁻¹ s⁻¹ |
| CCC[C@@H](NC(=O)N1C(=O)C(CC)(CC)[C@@H]1Oc1ccc(C(=O)N(C)CCN(C)CC(=O)OC(C)(C)C)cc1)c1ccc(C)cc1 [Compound 171] | 1.83e+06 M⁻¹ s⁻¹ |
| CCC[C@@H](NC(=O)N1C(=O)C(CC)(CC)[C@@H]1Oc1ccc(C(=O)N(C)C2CCCN(CC)C2)cc1)c1ccc(C)cc1 (some centres unmarked) [Compound 172] | 1.54e+06 M⁻¹ s⁻¹ |
| CCC[C@@H](NC(=O)N1C(=O)C(CC)(CC)[C@@H]1Oc1ccc(C(=O)N(C)CCN(C)CC2CCCCO2)cc1)c1ccc(C)cc1 (some centres unmarked) [Compound 173] | 2.94e+06 M⁻¹ s⁻¹ |
| CCC[C@@H](NC(=O)N1C(=O)C(CC)(CC)[C@@H]1Oc1ccc(C(=O)NC2CC(C)(C)NC(C)(C)C2)cc1)c1ccc(C)cc1 [Compound 174] | 869000 M⁻¹ s⁻¹ |
| CCC[C@@H](NC(=O)N1C(=O)C(CC)(CC)[C@@H]1Oc1ccc(C(=O)N(C)c2ccc(C(=O)O)cc2)cc1)c1ccc(C)cc1 [Compound 175] | 1.06e+06 M⁻¹ s⁻¹ |
| CCC[C@@H](NC(=O)N1C(=O)C(CC)(CC)[C@@H]1Oc1ccc(C(=O)N(C)c2ccc(C(=O)NS(=O)(=O)c3ccccc3)cc2)cc1)c1ccc(C)cc1 [Compound 176] | 3.23e+06 M⁻¹ s⁻¹ |
| CCC[C@@H](NC(=O)N1C(=O)C(CC)(CC)[C@@H]1Oc1ccc(C(=O)N(C)CCN(C)Cc2ccc(C#N)cc2)cc1)c1ccc(C)cc1 [Compound 177] | 2.2e+06 M⁻¹ s⁻¹ |

Further lines, results first:

| kinact/KI | Structure (SMILES) |
| --- | --- |
| 1.87e+06 M⁻¹ s⁻¹ | CCC[C@@H](NC(=O)N1C(=O)C(CC)(CC)[C@@H]1Oc1ccc(C(=O)N(C)CCN(C)Cc2ccc(C)cc2)cc1)c1ccc(C)cc1 [Compound 178] |
| 2.45e+06 M⁻¹ s⁻¹ | CCC[C@@H](NC(=O)N1C(=O)C(CC)(CC)[C@@H]1Oc1ccc(C(=O)N(C)CCN(C)Cc2cccc(C#N)c2)cc1)c1ccc(C)cc1 [Compound 179] |
| 905000 M⁻¹ s⁻¹ | CCC[C@@H](NC(=O)N1C(=O)C(CC)(CC)[C@@H]1Oc1ccc(C(=O)N(C)CCN(C)Cc2ccc(C(F)(F)F)cc2)cc1)c1ccc(C)cc1 [Compound 180] |
| 564000 M⁻¹ s⁻¹ | CCC[C@@H](NC(=O)N1C(=O)C(CC)(CC)[C@@H]1Oc1ccc(C(=O)N(C)CCN(C)Cc2cccc(C(F)(F)F)c2)cc1)c1ccc(C)cc1 [Compound 181] |
| 2.14e+06 M⁻¹ s⁻¹ | CCC[C@@H](NC(=O)N1C(=O)C(CC)(CC)[C@@H]1Oc1ccc(C(=O)N(C)CCN(C)Cc2ccc(F)cc2)cc1)c1ccc(C)cc1 [Compound 182] |
| 977000 M⁻¹ s⁻¹ | CCC[C@@H](NC(=O)N1C(=O)C(CC)(CC)[C@@H]1Oc1ccc(C(=O)NC(C)[PH](=O)O)cc1)c1ccc(C)cc1 (some centres unmarked) [Compound 183] |
| 755000 M⁻¹ s⁻¹ | CCC[C@@H](NC(=O)N1C(=O)C(CC)(CC)[C@@H]1Oc1ccc(C(=O)N[C@@H](CCCCN)C(=O)O)cc1)c1ccc(C)cc1 [Compound 184] |
| 1.79e+06 M⁻¹ s⁻¹ | CCC[C@@H](NC(=O)N1C(=O)C(CC)(CC)[C@@H]1Oc1ccc(C(=O)N(C)CCN(C)CC2CC2)cc1)c1ccc(C)cc1 [Compound 185] |
| 1.05e+06 M⁻¹ s⁻¹ | CCC[C@@H](NC(=O)N1C(=O)C(CC)(CC)[C@@H]1Oc1ccc(C(=O)N(C)CC(c2ccccc2)N(C)C)cc1)c1ccc(C)cc1 (some centres unmarked) [Compound 186] |
| 1.75e+06 M⁻¹ s⁻¹ | CCC[C@@H](NC(=O)N1C(=O)C(CC)(CC)[C@@H]1Oc1ccc(C(=O)N(C)C)cc1)c1ccc(C)cc1 [Compound 187] |
| 1.84e+06 M⁻¹ s⁻¹ | CCC[C@@H](NC(=O)N1C(=O)C(CC)(CC)[C@@H]1Oc1ccc(C(=O)N(C)Cc2ccccc2)cc1)c1ccc(C)cc1 [Compound 188] |
| 1.88e+06 M⁻¹ s⁻¹ | CCC[C@@H](NC(=O)N1C(=O)C(CC)(CC)[C@@H]1Oc1ccc(C(=O)N(C)C2CCCN(Cc3ccccc3)C2)cc1)c1ccc(C)cc1 (some centres unmarked) [Compound 189] |
| 1.8e+06 M⁻¹ s⁻¹ | CCC[C@@H](NC(=O)N1C(=O)C(CC)(CC)[C@@H]1Oc1ccc(C(=O)NOCc2ccccc2)cc1)c1ccc(C)cc1 [Compound 190] |
| 2.54e+06 M⁻¹ s⁻¹ | CCC[C@@H](NC(=O)N1C(=O)C(CC)(CC)[C@@H]1Oc1ccc(C(=O)N(CCN(C)Cc2ccccc2)Cc2cccnc2)cc1)c1ccc(C)cc1 [Compound 191] |
| 1.78e+06 M⁻¹ s⁻¹ | CCC[C@@H](NC(=O)N1C(=O)C(CC)(CC)[C@@H]1Oc1ccc(C(=O)N(C)CCN(C)Cc2ccc(OC)cc2)cc1)c1ccc(C)cc1 [Compound 192] |
| 2.24e+06 M⁻¹ s⁻¹ | CCC[C@@H](NC(=O)N1C(=O)C(CC)(CC)[C@@H]1Oc1ccc(C(=O)N(CCN(C)Cc2ccccc2)Cc2ccncc2)cc1)c1ccc(C)cc1 [Compound 193] |
| 2.47e+06 M⁻¹ s⁻¹ | CCC[C@@H](NC(=O)N1C(=O)C(CC)(CC)[C@@H]1Oc1ccc(C(=O)N(CCN(C)Cc2ccccc2)Cc2ccccn2)cc1)c1ccc(C)cc1 [Compound 194] |
| 1.12e+06 M⁻¹ s⁻¹ | CCC[C@@H](NC(=O)N1C(=O)C(CC)(CC)[C@@H]1Oc1ccc(C(=O)N(C)CCN(C)Cc2ccc(C)cc2C)cc1)c1ccc(C)cc1 [Compound 195] |
| 1.53e+06 M⁻¹ s⁻¹ | CCC[C@@H](NC(=O)N1C(=O)C(CC)(CC)[C@@H]1Oc1ccc(C(=O)N(C)CCN2CC(C)OC(C)C2)cc1)c1ccc(C)cc1 (some centres unmarked) [Compound 196] |
| 1.64e+06 M⁻¹ s⁻¹ | CCC[C@@H](NC(=O)N1C(=O)C(CC)(CC)[C@@H]1Oc1ccc(C(N)=O)cc1)c1ccc(C)cc1 [Compound 197] |
| 1.82e+06 M⁻¹ s⁻¹ | CCC[C@@H](NC(=O)N1C(=O)C(CC)(CC)[C@@H]1Oc1ccc(C(=O)NC)cc1)c1ccc(C)cc1 [Compound 198] |
| 2.38e+06 M⁻¹ s⁻¹ | CCC[C@@H](NC(=O)N1C(=O)C(CC)(CC)[C@@H]1Oc1ccc(C(=O)N2CCOCC2)cc1)c1ccc(C)cc1 [Compound 199] |
| 1.84e+06 M⁻¹ s⁻¹ | CCC[C@@H](NC(=O)N1C(=O)C(CC)(CC)[C@@H]1Oc1ccc(C(=O)N2C[C@@H](C)O[C@@H](C)C2)cc1)c1ccc(C)cc1 [Compound 200] |
